Measured values reported in patent US20100160226A1, “Y-RECEPTOR AGONISTS” (7TM PHARMA A/S, priority 2007, published 2010).

Assays:
human Y1 receptor = target: T1, human Y1 receptor (Homo sapiens, UniProt P25929); assay: Human Y1 receptor potency assay (inositol phosphate turnover); format: cell-based; conditions: COS-7 cells transfected with human Y1 receptor and Gqi5, read-out: hY1 EC50
T1 construct: expressed in transfected cells; host or cells: COS-7
T1 sequence (P25929 1-384): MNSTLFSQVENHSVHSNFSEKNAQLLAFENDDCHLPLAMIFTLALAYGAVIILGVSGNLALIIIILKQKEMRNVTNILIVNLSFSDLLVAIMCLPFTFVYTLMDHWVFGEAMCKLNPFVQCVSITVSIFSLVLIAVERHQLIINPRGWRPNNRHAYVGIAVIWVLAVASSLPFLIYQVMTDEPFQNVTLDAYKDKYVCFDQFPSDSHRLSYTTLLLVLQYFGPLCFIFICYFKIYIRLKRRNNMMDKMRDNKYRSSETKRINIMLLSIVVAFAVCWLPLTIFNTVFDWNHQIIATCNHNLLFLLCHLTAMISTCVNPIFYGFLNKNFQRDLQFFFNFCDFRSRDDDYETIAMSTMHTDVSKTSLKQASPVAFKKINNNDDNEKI
Description: Potency of the test compounds on the human Y2 receptor is determined by performing dose-response experiments in COS-7 cells transiently transfected with the human Y2 receptor as well as a promiscuous G protein, Gqi5 which ensures that the Y2 receptor couples through a Gq pathway leading to an increase in inositol phosphate turnover.
Cells are washed twice in buffer, 20 mM HEPES, pH 7.4, supplemented with 140 mM NaCl, 5 mM KCl, 1 mM MgSO4, 1 mM CaCl2, 10 mM glucose, 0.05% (w/v) bovine serum; and are incubated in 0.5 ml buffer supplemented with 10 mM LiCl at 37 C for 30 min. After stimulation with various concentrations of peptide for 45 min at 37 C, cells are extracted with 10% ice-cold perchloric acid followed by incubation on ice for 30 min. The resulting supernatants are neutralized with KOH in HEPES buffer, and the generated [3H]-inositol phosphate are purified on Bio-Rad AG 1-X8 anion-exchange resin and counted in a beta counter. Determinations are made in duplicates. EC50 values were calculated using a standard pharmacological data handling software, Prism 3.0 (graphPad Sofware, San Diego, USA).
Protocol as for the Y2 potency assay, except that human Y1-transformed COS-7 cells are used.

in vivo = assay: in vivo; parameters: species or system cyno monkeys; conditions: cynomolgus monkey
Source text: PYY itself is know to be extremely emetic when administered peripherally, in fact PYY was discovered-for “the second time” -in 1989 as the biologically active entity in a chromatographic fraction of an intestinal extract causing dogs to vomit (Harding and McDonald 1989 Peptides 10: 21-24). […] It has also been reported that PYY3-36 can cause nausea when administered peripherally to human subjects ([…] press release 29th of June 2004). From a physiological point of view it appears logically that PYY-and its biologically active conversion product-which normally first is secreted in large amounts during a very large meal or when food is dumped into the lower intestine due to various surgical procedures, is able to cause emesis and vomiting to relieve the subject from a situation of overt overeating. […] This is surprising since [[…]]PP has a relatively high potency on the Y2 receptor for which PYY3-36 is totally selective. […] Apparently, the Y4 receptor activation-conceivably in the area postreama-prevents the emetic effect of the Y2 activation form the same compound. This property of a combined Y2-Y4 selective agonist is of great benefit for the treatment of obesity and associated conditions.

| Compound | EC50 (human Y1 receptor) [nM] | level at time molar (in vivo) [nM] |
| --- | --- | --- |
| H-APLEPVYPGDNATPEQMAQYAADLRRYINTITRQRY-NH2 [[Thr30, Ile31, Gln34]hPP] | > 1000 | – |
| H-LEPVYPGDNATPEQMAQYAADLRRYINMLTRQRY-NH2 [[Gln34]hPP3-36, reference compound] | > 1000 | – |
| CC[C@H](C)[C@H](NC(=O)[C@H](Cc1ccc(O)cc1)NC(=O)[C@H](CCCNC(=N)N)NC(=O)[C@H](CCCNC(=N)N)NC(=O)[C@H](CC(C)C)NC(=O)[C@H](CC(=O)O)NC(=O)[C@H](C)NC(=O)[C@H](C)NC(=O)[C@H](Cc1ccc(O)cc1)NC(=O)[C@H](CCC(N)=O)NC(=O)[C@H](C)NC(=O)[C@H](CCSC)NC(=O)[C@H](CCC(N)=O)NC(=O)[C@H](CCC(=O)O)NC(=O)[C@@H]1CCCN1C(=O)[C@@H](NC(=O)[C@H](C)NC(=O)[C@H](CC(N)=O)NC(=O)[C@H](CC(=O)O)NC(=O)CNC(=O)[C@@H]1CCCN1C(=O)[C@H](Cc1ccc(O)cc1)NC(=O)[C@@H](NC(=O)[C@@H]1CCCN1C(=O)[C@H](CCC(=O)O)NC(=O)[C@H](CC(C)C)NC(=O)[C@@H]1CCCN1C(=O)[C@H](C)N)C(C)C)[C@@H](C)O)C(=O)N[C@@H](CC(N)=O)C(=O)N[C@@H](CCSC)C(=O)N[C@@H](CC(C)C)C(=O)N[C@H](C(=O)N[C@@H](CCCNC(=N)N)C(=O)N[C@@H](CCC(N)=O)C(=O)N[C@@H](CCCNC(=N)N)C(=O)N[C@@H](Cc1ccc(O)cc1)C(N)=O)[C@@H](C)O [[Gln34]hPP] | – | 12 to 13 |
| H-APLEPVYPGDNATPEQMAQYAADLRRYINTLTRQRY-NH2 [[Thr30, Gln34]hPP] | > 1000 | – |
| H-PLEPVYPGDNATPEQMAQYAADLRRYINTLTRQRY-NH2 [[Thr30, Gln34]hPP2-36] | > 1000 | – |
| H-PLEPVYPGDNATPEQMAQYAADLRRYINTITRQRY-NH2 [[Thr30, Ile31, Gln34]hPP2-36] | > 1000 | – |
